Measured values from patent US20220289753A1, “SHP2 INHIBITORS” (IRBM S.P.A., priority 2019, published 2022).

Target: T1, SHP-2 enzyme (Met1-Leu525) (Homo sapiens, UniProt Q06124)
T1 construct: synthetized by Origene, Met1-Leu525, cat #TP750155; purchased Origene TP750155
T1 sequence (Q06124 1-525): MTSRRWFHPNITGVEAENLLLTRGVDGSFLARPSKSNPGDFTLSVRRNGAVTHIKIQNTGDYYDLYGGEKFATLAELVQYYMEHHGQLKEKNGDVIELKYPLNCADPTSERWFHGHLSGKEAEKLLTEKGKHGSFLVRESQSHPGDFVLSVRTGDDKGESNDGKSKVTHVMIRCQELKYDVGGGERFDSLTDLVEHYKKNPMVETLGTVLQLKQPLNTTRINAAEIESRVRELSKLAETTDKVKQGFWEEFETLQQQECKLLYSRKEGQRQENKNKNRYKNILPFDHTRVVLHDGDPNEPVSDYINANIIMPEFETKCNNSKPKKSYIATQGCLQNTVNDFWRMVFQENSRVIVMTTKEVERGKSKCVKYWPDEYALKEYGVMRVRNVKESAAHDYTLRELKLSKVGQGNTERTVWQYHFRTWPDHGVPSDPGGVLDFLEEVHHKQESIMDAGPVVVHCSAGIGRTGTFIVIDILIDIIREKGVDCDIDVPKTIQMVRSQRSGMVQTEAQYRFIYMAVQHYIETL
Experiment: SHP2 inhibition enzymatic assay (DiFMUP substrate, IRS1 peptide activation)
Type: biochemical
Details: SHP2 wt; activated by 500 nM IRS1 peptide; 75 μM DiFMUP substrate
Outline: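 SHP-2 (Met1-Leu525, 0.5 nM final) preincubated 30 min with compounds and IRS1 activating peptide in HEPES pH 7.2 buffer with NaCl, KCl, EDTA, tween-20, 5 mM DTT. DiFMUP then added for 30 min at room temperature and fluorescence read. IC50 from four-parameter logistic fit of % inhibition.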

| IC50 [µM] | Structure (SMILES) |
| --- | --- |
| < 0.5 | Nc1cnccc1Sc1cnc2[nH]c(N3CCC4(CC3)Cc3ccccc3[C@H]4N)nc2n1 [Example 210, (S)-1′-(5-((3-aminopyridin-4-yl)thio)-1H-imidazo[4,5-b]pyrazin-2-yl)-1,3-dihydrospiro[indene-2,4′-piperidin]-1-amine] |
| 0.5 to 3 | COC(=O)c1ccccc1Sc1cnc2[nH]c(N3CCC(C)(N)CC3)nc2n1 [Example 78, methyl 2-((2-(4-amino-4-methylpiperidin-1-yl)-1H-imidazo[4,5-b]pyrazin-5-yl)thio)benzoate] |
| 0.5 to 3 | COc1cccc(Sc2cnc3[nH]c(N4CCC(C)(N)CC4)nc3n2)c1 [Example 25, 1-(5-((3-methoxyphenyl)thio)-1H-imidazo[4,5-b]pyrazin-2-yl)-4-methylpiperidin-4-amine] |
| < 0.5 | CN(C)c1ncccc1Sc1cnc2[nH]c(N3CCC4(CC3)Cc3ccccc3[C@H]4N)nc2n1 [Example 211, (S)-1′-(5-((2-(dimethylamino)pyridin-3-yl)thio)-1H-imidazo[4,5-b]pyrazin-2-yl)-1,3-dihydrospiro[indene-2,4′-piperidin]-1-amine] |
| > 3 | CC1(N)CCN(c2nc3nc(Sc4ncnc5ccccc45)cnc3[nH]2)CC1 [Example 101, 4-methyl-1-(5-(quinazolin-4-ylthio)-1H-imidazo[4,5-b]pyrazin-2-yl)piperidin-4-amine] |
| 0.5 to 3 | CC1(N)CCN(c2nc3nc(Sc4cc(C(F)(F)F)ccc4Cl)cnc3[nH]2)CC1 [Example 36, 1-(5-((2-chloro-5-(trifluoromethyl)phenyl)thio)-1H-imidazo[4,5-b]pyrazin-2-yl)-4-methylpiperidin-4-amine] |
| 0.5 to 3 | CC1(N)CCN(c2nc3nc(Sc4ccnc(Br)c4)cnc3[nH]2)CC1 [Example 64, 1-(5-((2-bromopyridin-4-yl)thio)-1H-imidazo[4,5-b]pyrazin-2-yl)-4-methylpiperidin-4-amine] |
| 0.5 to 3 | CC1(N)CCN(c2nc3nc(Sc4cccc(-c5ccccc5)c4)cnc3[nH]2)CC1 [Example 58, 1-(5-([1,1′-biphenyl]-3-ylthio)-1H-imidazo[4,5-b]pyrazin-2-yl)-4-methylpiperidin-4-amine] |
| > 3 | CC1(N)CCN(c2nc3nc(Sc4ccnc5ccnn45)cnc3[nH]2)CC1 [Example 104, 4-methyl-1-(5-(pyrazolo[1,5-a]pyrimidin-7-ylthio)-1H-imidazo[4,5-b]pyrazin-2-yl)piperidin-4-amine] |
| > 3 | OC1CCN(c2nc3nc(Sc4cccnc4C(F)(F)F)cnc3[nH]2)CC1 [Example 41, 1-(5-((2-(trifluoromethyl)pyridin-3-yl)thio)-1H-imidazo[4,5-b]pyrazin-2-yl)piperidin-4-ol] |
| 0.5 to 3 | CC1(N)CCN(c2nc3nc(Sc4cccc(C5CC5)c4)cnc3[nH]2)CC1 [Example 46, 1-(5-((3-cyclopropylphenyl)thio)-1H-imidazo[4,5-b]pyrazin-2-yl)-4-methylpiperidin-4-amine] |
| < 0.5 | CC1(N)CCN(c2nc3nc(Sc4cccc5cnccc45)cnc3[nH]2)CC1 [Example 70, 1-(5-(isoquinolin-5-ylthio)-1H-imidazo[4,5-b]pyrazin-2-yl)-4-methylpiperidin-4-amine] |
| 0.5 to 3 | CC1(N)CCN(c2nc3ncc(Sc4ccccc4)nc3[nH]2)CC1 [Example 11, 4-methyl-1-(6-(phenylthio)-1H-imidazo[4,5-b]pyrazin-2-yl)piperidin-4-amine] |
| 0.5 to 3 | CC1(N)CCN(c2nc3nc(Sc4ccc5ccccc5c4)cnc3[nH]2)CC1 [Example 81, 4-methyl-1-(5-(naphthalen-2-ylthio)-1H-imidazo[4,5-b]pyrazin-2-yl)piperidin-4-amine] |
| 0.5 to 3 | COCCn1c(N2CCC(C)(N)CC2)nc2nc(Sc3cccnc3C(F)(F)F)cnc21 [Example 129, 1-(1-(2-methoxyethyl)-5-((2-(trifluoromethyl)pyridin-3-yl)thio)-1H-imidazo[4,5-b]pyrazin-2-yl)-4-methylpiperidin-4-amine] |
| 0.5 to 3 | CCn1c(N2CCC(C)(N)CC2)nc2nc(Sc3cccnc3C(F)(F)F)cnc21 [Example 63, 1-(1-ethyl-5-((2-(trifluoromethyl)pyridin-3-yl)thio)-1H-imidazo[4,5-b]pyrazin-2-yl)-4-methylpiperidin-4-amine] |
| < 0.5 | COc1ncccc1Sc1cnc2[nH]c(N3CCC4(CC3)Cc3ccccc3[C@H]4N)nc2n1 [Example 214, (S)-1′-(5-((2-methoxypyridin-3-yl)thio)-1H-imidazo[4,5-b]pyrazin-2-yl)-1,3-dihydrospiro[indene-2,4′-piperidin]-1-amine] |

| IC50 [µM] | Structure (SMILES) |
| --- | --- |
| 0.5 to 3 | FC(F)(F)c1ncccc1Sc1cnc2[nH]c(NC3CC4(CNC4)C3)nc2n1 [Example 84, N-(2-azaspiro[3.3]heptan-6-yl)-5-((2-(trifluoromethyl)pyridin-3-yl)thio)-1H-imidazo[4,5-b]pyrazin-2-amine] |
| > 3 | O=C1NCC2(CCCN(c3nc4nc(Sc5cccnc5C(F)(F)F)cnc4[nH]3)C2)O1 (stereo not shown) [Example 83, 7-(5-((2-(trifluoromethyl)pyridin-3-yl)thio)-1H-imidazo[4,5-b]pyrazin-2-yl)-1-oxa-3,7-diazaspiro[4.5]decan-2-one] |
| > 3 | FC(F)(F)c1ncccc1Sc1cnc2[nH]c(NCc3cccnc3N3CCOCC3)nc2n1 [Example 112, N-((2-morpholinopyridin-3-yl)methyl)-5-((2-(trifluoromethyl)pyridin-3-yl)thio)-1H-imidazo[4,5-b]pyrazin-2-amine] |
| < 0.5 | Cc1cc(Cl)ccc1Sc1cnc2[nH]c(N3CCC(C)(N)CC3)nc2n1 [Example 38, 1-(5-((4-chloro-2-methylphenyl)thio)-1H-imidazo[4,5-b]pyrazin-2-yl)-4-methylpiperidin-4-amine] |
| > 3 | CC1(N)CCN(c2nc3nc(Sc4ccn5nccc5n4)cnc3[nH]2)CC1 [Example 65, 4-methyl-1-(5-(pyrazolo[1,5-a]pyrimidin-5-ylthio)-1H-imidazo[4,5-b]pyrazin-2-yl)piperidin-4-amine] |
| > 3 | NC(=O)C1CCN(c2nc3nc(Sc4cccnc4C(F)(F)F)cnc3[nH]2)CC1 [Example 51, 1-(5-((2-(trifluoromethyl)pyridin-3-yl)thio)-1H-imidazo[4,5-b]pyrazin-2-yl)piperidine-4-carboxamide] |
| > 3 | CC1(N)CCN(c2nc3nc(Sc4cccc(O)n4)cnc3[nH]2)CC1 [Example 66, 6-((2-(4-amino-4-methylpiperidin-1-yl)-1H-imidazo[4,5-b]pyrazin-5-yl)thio)pyridin-2-ol] |
| 0.5 to 3 | FC(F)(F)c1ncccc1Sc1cnc2[nH]c(N3CCN4CCNCC4C3)nc2n1 (stereo not shown) [Example 56, 2-(5-((2-(trifluoromethyl)pyridin-3-yl)thio)-1H-imidazo[4,5-b]pyrazin-2-yl)octahydro-2H-pyrazino[1,2-a]pyrazine] |
| 0.5 to 3 | COc1ccc(Sc2cnc3[nH]c(N4CCC(C)(N)CC4)nc3n2)cc1 [Example 45, 1-(5-((4-methoxyphenyl)thio)-1H-imidazo[4,5-b]pyrazin-2-yl)-4-methylpiperidin-4-amine] |
| < 0.5 | Cc1c(Cl)cccc1Sc1cnc2[nH]c(N3CCC(C)(N)CC3)nc2n1 [Example 114, 1-(5-((3-chloro-2-methylphenyl)thio)-1H-imidazo[4,5-b]pyrazin-2-yl)-4-methylpiperidin-4-amine] |
| > 3 | N[C@@H]1CCCC12CCN(c1nc3ncc(N4CCCc5ncccc54)nc3[nH]1)CC2 [Example 120, (R)-8-(6-(3,4-dihydro-1,5-naphthyridin-1(2H)-yl)-1H-imidazo[4,5-b]pyrazin-2-yl)-8-azaspiro[4.5]decan-1-amine] |
| > 3 | FC(F)(F)c1ncccc1Sc1cnc2[nH]c(NCCCN3CCOCC3)nc2n1 [Example 123, N-(3-morpholinopropyl)-5-((2-(trifluoromethyl)pyridin-3-yl)thio)-1H-imidazo[4,5-b]pyrazin-2-amine] |
| 0.5 to 3 | FC(F)(F)c1ncccc1Sc1cnc2[nH]c(N3CCCCC3)nc2n1 [Example 31, 2-(piperidin-1-yl)-5-((2-(trifluoromethyl)pyridin-3-yl)thio)-1H-imidazo[4,5-b]pyrazine] |
| < 0.5 | CC1(N)CCN(c2nc3nc(Sc4ccncc4Cl)cnc3[nH]2)CC1 [Example 28, 1-(5-((3-chloropyridin-4-yl)thio)-1H-imidazo[4,5-b]pyrazin-2-yl)-4-methylpiperidin-4-amine] |
| < 0.5 | CC1(N)CCN(c2nc3ncc(Sc4cccc5ncccc45)nc3[nH]2)CC1 [Example 49, 4-methyl-1-(6-(quinolin-5-ylthio)-1H-imidazo[4,5-b]pyrazin-2-yl)piperidin-4-amine] |
| 0.5 to 3 | NCC1CCN(c2nc3nc(Sc4cccnc4C(F)(F)F)cnc3[nH]2)CC1 [Example 8, (1-(5-((2-(trifluoromethyl)pyridin-3-yl)thio)-1H-imidazo[4,5-b]pyrazin-2-yl)piperidin-4-yl)methanamine] |
| 0.5 to 3 | CC1(N)CCN(c2nc3ncc(Oc4cccc(Cl)c4Cl)nc3[nH]2)CC1 [Example 122, 1-(5-(2,3-dichlorophenoxy)-1H-imidazo[4,5-b]pyrazin-2-yl)-4-methylpiperidin-4-amine] |
